# From patent US20160115540A1, “PRODRUGS AND DRUGS” (Biogen MA Inc., priority 2013, published 2016)
# Where a name gives a salt, the structure may show the parent alone.
# System: spleen
# Assay: Transcriptional profiling, multi-dosing regimen, naïve mice: spleen
# Format: in vivo
# Details: for Number of differentially expressed genes identified: Spleen: Table 13: Naïve, Single Dose (so in the source), 12 h after last dosing
# Procedure: In vivo, DMF is rapidly metabolized to monomethyl fumarate (MMF). […] Animals were exposed to CO2 and whole blood collected via cardiac puncture. Two 100 μl aliquots of whole blood were collected in 1.5 mL microcentrifuge tubes and snap frozen in liquid nitrogen. Peripheral (liver, spleen, kidney and jejunum) and CNS brain (cerebellum, hippocampus, striatum and cortex) tissues were harvested and snap frozen in liquid nitrogen, with special care taken to collect tissues of similar size and from the same location. All samples were stored at -80° C. until RNA extraction was conducted. For RNA preparation, frozen tissues were placed in 2 mL RNAse-free 96-well blocks with 1.5 mL QIAzol Lysis Reagent (QIAgen) and a 3.2 mm stainless steel bead (BioSpec Products, Bartlesville, Okla.). Tissues were disrupted for four cycles of 45 seconds in a Mini-Beadbeater (Biospec Products). RNA was extracted in chloroform and the aqueous phase was mixed with an equal volume of 70% ethanol. Extracted RNA was applied to RNeasy 96 plates and purified by the spin method according to the manufacturer's protocol (RNeasy 96 Universal Tissue Protocol, QIAgen, Hilden Germany). […] Two micrograms of biotin labeled […] probe were hybridized to Affymetrix GeneChip Affymetrix HT_MG-430_PM plate arrays with modified conditions as described in […] et al. Washing and staining of the hybridized arrays were completed as described in the GeneChip Expression analysis technical manual for HT plate arrays using the Genechip® Array Station (Affymetrix, Santa Clara, Calif.) with modifications as described in […] et al. The processed GeneChip® plate arrays were scanned using GeneTitan scanner (Affymetrix, Santa Clara, Calif.). Affymetrix scans were subject to quality control (QC) measures. These tests included a visual inspection of the distribution of raw signal intensities and an assessment of RNA degradation, relative log expression (RLE), and normalized unsealed standard error (NUSE). All sample scans that passed these QC metrics were included in the analysis. All CEL files were subjected to GC-content-based Robust Multi-array Average (GCRMA) normalization (version 2.20.0) (Irizarry R A, et al. Nucleic Acids Res 2003; 31:e15; Li C, et al. […] Stat Appl Genet Mol Biol 2004; 3:Article3). […] Springer Science+Business Media 2005). Changes in gene expression were studied by applying a linear modeling approach to fit gene expression levels according to the defined groups of samples (e.g. DMF-, MMF-, and Vehicle-treated animals) and Bayesian posterior error analysis as implemented by Smyth (Smyth G K. Stat Appl Genet Mol Biol 2004; 3:Article3). The comparisons considered included: DMF-vs-MMF, DMF-vs-Vehicle, and MMF-vs-Vehicle. […] Very few DEGs are observed in blood and tissues derived from the central nervous system (brain, cerebellum, cortex, striatum, and spinal cord).
# [1] = SPLEEN, 100DMF-vs-100MMF, naïve multidose
# [2] = SPLEEN, 100DMF-vs-Veh, naïve multidose
# [3] = SPLEEN, 100MMF-vs-Veh, naïve multidose
structure (smiles),measurement,setting,value
"COC(=O)/C=C/C(=O)OC [DMF, dimethyl fumarate]",FC 4931431B13Rik (1430416_PM_at),[1],2.18
same,FC AU015536 (1445025_PM_at),[1],1.55
same,FC Adap2 (1425639_PM_at),[1],1.60
same,FC Agtr1a (1436739_PM_at),[1],1.61
same,FC Ano1 (1426571_PM_at),[1],1.70
same,FC Ano1 (1459713_PM_s_at),[1],1.55
same,FC Apoc1 (1417561_PM_at),[1],1.74
same,FC Ccbe1 (1439327_PM_at),[1],2.07
same,FC Ccdc80 (1424187_PM_at),[1],1.74
same,FC Ccl3 (1419561_PM_at),[1],1.81
same,FC Ccl6 (1420249_PM_s_at),[1],1.88
same,FC Ccr3 (1422957_PM_at),[1],2.25
same,FC Cd300ld (1424832_PM_at),[1],1.82
same,FC Cdr2l (1445027_PM_at),[1],1.57
same,FC Clec4n (1419627_PM_s_at),[1],1.52
same,FC Clec4n (1425951_PM_a_at),[1],1.83
same,FC Dmd (1417307_PM_at),[1],1.59
same,FC Ear1 (1421802_PM_at),[1],3.89
same,FC Ear1 /// Ear12 /// Ear2 /// Ear3 (1422411_PM_s_at),[1],1.79
same,FC Ear2 (1449846_PM_at),[1],1.51
same,FC Ear3 (1422412_PM_x_at),[1],1.80
same,FC Emr4 (1424998_PM_at),[1],1.77
same,FC Ercc61 (1424766_PM_at),[1],−1.66
same,FC Fam63a (1438321_PM_x_at),[1],−1.52
same,FC Fcgr1 (1417876_PM_at),[1],1.61
same,FC Fcna (1418243_PM_at),[1],1.57
same,FC Hs6st2 (1450047_PM_at),[1],1.64
same,FC Kcnj16 (1435094_PM_at),[1],1.69
same,FC Klrb1a (1450296_PM_at),[1],1.78
same,FC Lphn3 (1458742_PM_at),[1],1.60
same,FC Ncr1 (1422089_PM_at),[1],1.54
same,FC Niacr1 (1419721_PM_at),[1],1.65
same,FC P2ry12 (1431724_PM_a_at),[1],1.66
same,FC Pla2g7 (1430700_PM_a_at),[1],1.51
same,FC Ptplad2 (1450967_PM_at),[1],1.56
same,FC Rab31 (1431691_PM_a_at),[1],1.73
same,FC Rnf144b (1425282_PM_at),[1],1.86
same,FC Skiv2l (1422584_PM_at),[1],−1.52
same,FC St18 (1455123_PM_at),[1],1.75
same,FC Sult1a1 (1427345_PM_a_at),[1],1.51
same,FC Tmem26 (1434583_PM_at),[1],1.57
same,FC Ubn2 (1430056_PM_at),[1],−1.62
same,FC Vcam1 (1415989_PM_at),[1],1.50
same,FC Vcam1 (1436003_PM_at),[1],1.62
same,FC Vcam1 (1451314_PM_a_at),[1],1.61
same,FC Vnn3 (1420723_PM_at),[1],1.54
same,FC probe 1420250_PM_at (no gene symbol),[1],1.50
same,FC probe 1421534_PM_at (no gene symbol),[1],1.57
same,FC probe 1429277_PM_at (no gene symbol),[1],1.59
same,FC probe 1442323_PM_at (no gene symbol),[1],−1.55
same,FC probe 1444189_PM_at (no gene symbol),[1],1.71
same,FC probe 1445379_PM_at (no gene symbol),[1],−1.51
same,FC Aox1 (1419435_PM_at),[2],1.66
same,FC Gsta3 (1423436_PM_at),[2],1.86
same,FC Gstm1 (1416416_PM_x_at),[2],1.57
same,FC Gstm1 (1448330_PM_at),[2],1.61
same,Number of differentially expressed genes identified: Spleen,100 mpk DMF-vs-90 mpk MMF,52
same,Number of differentially expressed genes identified: Spleen,100 mpk DMF-vs-Vehicle,4
same,"CCR3, Klrb1c, NCR1 and CCL3L1 expression (downstream of IL2), DMF vs MMF","spleen, multi-dosed naïve mice",up-regulated
same,"FCGR1A, ST18, CCL3L1 and VCAM1 expression (downstream of NFkB), DMF vs MMF","spleen, multi-dosed naïve mice",up-regulated
"COC(=O)/C=C/C(=O)O [MMF, monomethyl fumarate]",FC 4931431B13Rik (1430416_PM_at),[3],−1.94
same,FC 5430404G13Rik (1453540_PM_at),[3],−1.55
same,FC 5730403M16Rik (1434343_PM_at),[3],1.51
same,FC Ccdc80 (1424187_PM_at),[3],−1.64
same,FC Ccl3 (1419561_PM_at),[3],−1.82
same,FC Ccr3 (1422957_PM_at),[3],−2.37
same,FC Cd300ld (1424832_PM_at),[3],−1.85
same,FC Clec4a2 (1422013_PM_at),[3],−1.50
same,FC Clec4a2 (1425406_PM_at),[3],−1.64
same,FC Clec4a3 (1429954_PM_at),[3],−1.58
same,FC Clec4n (1425951_PM_a_at),[3],−1.81
same,FC Csmd3 (1438272_PM_at),[3],−1.80
same,FC Defb1 (1419491_PM_at),[3],1.55
same,FC Dmd (1417307_PM_at),[3],−1.56
same,FC Ear3 (1422412_PM_x_at),[3],−1.73
same,FC Emr4 (1424998_PM_at),[3],−1.75
same,FC Fam63a (1438321_PM_x_at),[3],1.54
same,FC Fcgr1 (1417876_PM_at),[3],−1.84
same,FC Fgfrl1 /// LOC100046239 (1447878_PM_s_at),[3],1.53
same,FC Gzma (1417898_PM_a_at),[3],−1.64
same,FC Hpgds (1421492_PM_at),[3],−1.55
same,FC Hs6st2 (1450047_PM_at),[3],−1.75
same,FC Iigp1 (1419043_PM_a_at),[3],−1.72
same,FC Lrp4 (1426288_PM_at),[3],−1.51
same,FC Lrrc50 (1421974_PM_at),[3],1.53
same,FC Niacr1 (1419721_PM_at),[3],−1.91
same,FC Ptplad2 (1450967_PM_at),[3],−1.55
same,FC Rab31 (1431691_PM_a_at),[3],−1.62
same,FC Rnf144b (1425282_PM_at),[3],−1.71
same,FC Stfa2l1 (1442339_PM_at),[3],−2.07
same,FC Stx1a (1437390_PM_x_at),[3],1.53
same,FC Tmem26 (1434583_PM_at),[3],−1.67
same,FC Ubn2 (1430056_PM_at),[3],1.64
same,FC Ucp2 (1444566_PM_at),[3],1.54
same,FC Vnn3 (1420723_PM_at),[3],−1.59
same,FC probe 1429277_PM_at (no gene symbol),[3],−1.60
same,FC probe 1431225_PM_at (no gene symbol),[3],1.58
same,FC probe 1439831_PM_at (no gene symbol),[3],−1.51
same,FC probe 1442323_PM_at (no gene symbol),[3],1.51
same,FC probe 1447204_PM_at (no gene symbol),[3],−1.95
same,FC probe 1449653_PM_at (no gene symbol),[3],−1.57
same,FC probe 1457306_PM_at (no gene symbol),[3],2.12
same,Number of differentially expressed genes identified: Spleen,90 mpk MMF-vs-Vehicle,42
